Laboratory results: patent US12110494B2, “Method for biologically producing sugar alcohol from agar” (Korea University Research and Business Foundation, priority 2018, dated 2024)

What was measured:
[1] = system: D452-2-L12; test: Intracellular AB uptake by LAC12 in minimal medium; format: cell-based, S. cerevisiae; settings: minimal medium (Verduyn), without carbon source, FIG. 4A
Description: To confirm the possibility that, […], AB is consumed together or AB is uptaken into the cell by producing energy from the carbon source, […], and then AB consumption experiments were performed for D452-2-L12 and parent D452-2 as a control. […]

[2] = system: D452-2-L12; test: Cell growth inhibition according to AB concentration; format: cell-based, S. cerevisiae; settings: 20 g/L glucose
From the text: (§1) An experiment for confirming the growth inhibition effect is as follows. […] This is because an increase in AB concentration causes a glucose (carbon source) consumption rate to be decreased (FIG. 6B).

[3] = system: D452-2-L124; test: as above; format: cell-based, S. cerevisiae
From the text: as §1

[4] = system: parent D452-2; test: as above; format: cell-based, S. cerevisiae; settings: 20 g/L glucose
From the text: as §1

[5] = target: T1, AR expressed by a GRE3 gene derived from S. cerevisiae (Saccharomyces cerevisiae, UniProt P38715); test: Reduction of L-AHG and AB by AR (NADPH decrease at 340 nm); format: biochemical; settings: substrate 2 mM, 1 mM NADPH, pH 6.0 sodium phosphate buffer, 30° C., FIG. 3B
T1 construct: A target gene GRE3 was amplified from the genomic DNA by PCR; His6 (C); made in house
T1 sequence (P38715 1-327): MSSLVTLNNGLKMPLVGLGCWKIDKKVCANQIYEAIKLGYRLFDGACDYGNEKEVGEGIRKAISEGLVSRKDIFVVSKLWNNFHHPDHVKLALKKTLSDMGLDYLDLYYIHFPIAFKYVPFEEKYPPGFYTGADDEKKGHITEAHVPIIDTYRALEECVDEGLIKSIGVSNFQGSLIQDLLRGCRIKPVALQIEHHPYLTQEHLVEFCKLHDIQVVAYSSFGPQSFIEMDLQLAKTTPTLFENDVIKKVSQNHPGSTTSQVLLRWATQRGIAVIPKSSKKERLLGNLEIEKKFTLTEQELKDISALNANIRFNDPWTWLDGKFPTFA
Description: An enzymatic reaction was performed in a pH 6.0 sodium phosphate buffer at 30° C. 1 mM NADPH was used as a cofactor, and each substrate was allowed to react at 2 mM and a protein concentration of 9.36 nmol.

[6] = system: parent D452-2; test: Intracellular AB uptake in minimal medium, control strain; format: cell-based, S. cerevisiae; settings: minimal medium (Verduyn), without carbon source, FIG. 4D
Description: To confirm the possibility that, when a carbon source that may be consumed by a transporter is provided, AB is consumed together or AB is uptaken into the cell by producing energy from the carbon source, […], and then AB consumption experiments were performed for D452-2-L12 and parent D452-2 as a control. As a result, both when glucose (FIG. 4B) was provided and when galactose (FIG. 4C) was provided, only D452-2-L12 was able to consume AB and produced ABol. […] Therefore, D452-2-L12 was able to consume AB by LAC12.

[7] = target: T2, β-galactosidase expressed by LAC4 (Kluyveromyces lactis, UniProt P00723); test: AB hydrolysis by LAC4 in coenzyme obtained from lysed cells; format: biochemical, K. lactis; settings: substrate 2 g/L
T2 construct: expressed in transfected cells; host or cells: Saccharomyces cerevisiae D452-2-L124 (crude lysate supernatant)
T2 sequence (P00723 whole entry): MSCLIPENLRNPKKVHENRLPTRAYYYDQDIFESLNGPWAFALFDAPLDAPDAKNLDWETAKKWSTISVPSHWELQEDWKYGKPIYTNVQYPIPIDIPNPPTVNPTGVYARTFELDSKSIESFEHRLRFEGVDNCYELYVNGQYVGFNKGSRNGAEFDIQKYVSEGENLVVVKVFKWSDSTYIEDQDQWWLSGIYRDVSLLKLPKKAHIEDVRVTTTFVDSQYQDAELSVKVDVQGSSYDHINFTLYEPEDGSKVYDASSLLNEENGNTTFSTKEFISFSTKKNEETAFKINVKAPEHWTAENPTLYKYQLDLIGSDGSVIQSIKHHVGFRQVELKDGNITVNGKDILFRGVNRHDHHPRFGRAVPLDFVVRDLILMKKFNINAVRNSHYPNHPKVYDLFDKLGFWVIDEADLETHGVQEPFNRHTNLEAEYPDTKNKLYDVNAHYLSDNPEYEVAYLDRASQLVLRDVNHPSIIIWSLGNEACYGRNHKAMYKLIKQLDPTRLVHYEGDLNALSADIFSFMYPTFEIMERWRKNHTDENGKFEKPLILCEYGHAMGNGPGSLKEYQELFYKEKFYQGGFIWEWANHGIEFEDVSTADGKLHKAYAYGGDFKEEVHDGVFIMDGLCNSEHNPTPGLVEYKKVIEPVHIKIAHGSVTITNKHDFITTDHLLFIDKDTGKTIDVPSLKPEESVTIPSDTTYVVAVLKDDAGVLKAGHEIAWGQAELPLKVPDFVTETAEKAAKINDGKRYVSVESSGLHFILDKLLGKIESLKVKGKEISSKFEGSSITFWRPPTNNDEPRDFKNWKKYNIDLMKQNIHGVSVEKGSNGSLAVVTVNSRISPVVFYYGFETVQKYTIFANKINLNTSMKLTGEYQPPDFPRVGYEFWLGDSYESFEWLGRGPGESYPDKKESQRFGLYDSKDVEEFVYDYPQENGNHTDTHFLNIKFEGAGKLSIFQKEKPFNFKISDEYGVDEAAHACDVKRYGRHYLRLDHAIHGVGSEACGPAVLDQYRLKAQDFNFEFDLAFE
Description: The AB hydrolysis ability of LAC4 was examined for the constructed strain D452-2-L124 and controls D452-2-L12 and parent D452-2. Since a method of verifying AB hydrolysis is to verify the enzymatic reaction in the cell, a protein, that is, a coenzyme, obtained by growth, collection, and lysis of each cell was used to measure the AB hydrolysis ability. More specifically, each strain was allowed to grow in a YP medium, which is a nutrient broth containing 20 g/L of glucose, at 30° C. and centrifuged in the mid-exponential growth phase at 3,000 g for 10 minutes to collect cells. The collected cells were released with a 20 mM Tris-HCl (pH 7.4) buffer and then lyzed using a sonicator. The lyzed cells were centrifuged at 4° C. and 10,000 g for 10 minutes. The resultant was analyzed by BCA protein concentration quantification to measure the concentration of a coenzyme.
Enzymatic reaction conditions for AB hydrolysis by LAC4 were as follows. AB and lactose as a positive control were used as substrates in the experiment. Each substrate with a concentration of 2 g/L and a coenzyme at 0.5 g/L were reacted in a sodium acetate (pH 6.0) buffer at 30° C. […] This is due to a structural difference between AB and lactose. In this way, it is expected that AB brought into the cell by LAC12 will be hydrolyzed by LAC4.

[8] = Thermal stability (degree of denaturation over time); format: physicochemical; settings: at 4, 25, 50, and 70° C., FIGS. 11A-11D
Description: To confirm whether L-AHGol and L-ABol, which were produced by fermentation and separated by size exclusion chromatography, are actually stable against heat, L-AHG and AB were experimentally compared. The experiment was performed by measuring the degree of denaturation of each substance over time at 4, 25, 50, and 70° C.

[9] = system: Streptococcus mutans; settings: reported; cited from earlier work
[10] = AB 0, 10, 20, 50 g/L, minimal medium, 30° C., FIG. 6A

Structure (SMILES): OC[C@H]1O[C@@H](O[C@H]2[C@H]3OC[C@@H]2OC(O)[C@H]3O)[C@H](O)[C@@H](O)[C@H]1O (mixture of isomers) [AB, agarobiose]
- AB consumption from medium [1]: intracellularly consumed AB
- specific growth rate as AB concentration increased [2, 10]: decreased as the AB concentration increased
- growth ([2]; AB concentration 50 g/L): did not grow
- specific growth rate as AB concentration increased ([3]; AB 0, 10, 20, 50 g/L, 20 g/L glucose, minimal medium, 30° C., FIG. 6A): most sharply decreased
- growth ([3]; AB concentration 50 g/L, 20 g/L glucose): did not grow
- glucose (carbon source) consumption rate on increase in AB concentration ([3]; each strain showed a tendency similar to the specific growth rate, FIG. 6B): decreased
- specific growth rate as AB concentration increased [4, 10]: not affected until the AB concentration was 20 g/L
- growth ([4]; AB concentration 50 g/L): slowly grew afterward
- reactivity with AR [5]: converted into ABol by AR
- AB consumption from medium [6]: did not decrease
- AB hydrolysis ([7]; coenzyme from D452-2-L124 0.5 g/L, sodium acetate pH 6.0, 30° C., FIG. 5): best hydrolyzed
- AB hydrolysis ([7]; coenzymes from strains not expressing LAC4 (D452-2-L12 and parent D452-2), pH 6.0, 30° C.): hardly hydrolyzed
- reactivity to β-galactosidase compared with lactose ([7]; coenzyme 0.5 g/L, pH 6.0, 30° C.): less reactive
- thermal stability, degree of denaturation over time [8]: denatured over time at 50 °C or more

Structure (SMILES): OC[C@@H](O)[C@@H]1OC[C@H](O)[C@H]1O[C@@H]1O[C@H](CO)[C@H](O)[C@H](O)[C@H]1O [ABol, agarobititol]
- thermal stability, degree of denaturation over time [8]: very stable without being denatured even at 70 °C

Structure (SMILES): O=C[C@@H](O)[C@@H]1OC[C@H](O)[C@H]1O [L-AHG, 3,6-anhydro-L-galactose]
- antibacterial effect [9]: antibacterial effect
- reactivity with AR [5]: then with L-AHG
- thermal stability, degree of denaturation over time [8]: denatured over time at 50 °C or more

Structure (SMILES): OC[C@@H](O)[C@@H]1OC[C@H](O)[C@H]1O [L-AHGol, 3,6-anhydro-L-galactitol]
- thermal stability, degree of denaturation over time [8]: very stable without being denatured even at 70 °C

Structure (SMILES): O=C[C@H](O)[C@@H](O)[C@H](O)CO [xylose]
- reactivity with AR [5]: reacted best
